Laboratory results from US20040224880A1, “Regulation of gastric acid secretion by inwardly rectifying k+ channels” (Beth Israel Deaconess Medical Center, Inc., priority 2001, published 2004).
“Also recorded” adds a separate entry of the source.

Key:
bullfrog gastric mucosa [1] = conditions: cited from earlier work
[2] = system: cimetidine-inhibited tissues; assay: Resistance (R) of cimetidine-inhibited gastric mucosa tissues; format: cell-based, bullfrog; conditions: pH 7.2
Protocol: Tissues were incubated with cimetidine until acid secretion reached 0 μEq/hr cm^2; experiments were performed only if the R of paired tissues was different by 10% or less.

bullfrog gastric mucosa [3] = format: cell-based
Protocol: FIG. 1B Electrophysiology in the bullfrog gastric mucosa. […] Removal of NH4Cl was followed by a complete recovery of R within 30 min. Data were obtained from 21 experiments and are expressed as the mean±SEM.
FIG. 1C Electrophysiology in the bullfrog gastric mucosa. […] Removal of NH4Cl was followed by a complete recovery of PD within 30 min. Data were obtained from 21 experiments and are expressed as the mean±SEM.

rabbit gastric glands = assay: Intracellular ATP in rabbit gastric glands; format: cell-based
bullfrog gastric mucosa [4] = assay: Acid secretion of frog (bullfrog) gastric mucosa stimulated with histamine/carbachol or forskolin; format: cell-based
[5] = system: Ca^2+-dependent inwardly rectifying K^+ channel; conditions: HeLa cells (Diaz et al.); cited from earlier work

Cl.N [NH4Cl, ammonium chloride]
effect of luminal NH4Cl on tissue resistance (Yanaka et al.) (bullfrog gastric mucosa [1]): significant decrement in tissue resistance
effect of basolateral NH4Cl on acid secretion (Yanaka et al.) (bullfrog gastric mucosa [1]; pH 7.2): rapidly and completely inhibits acid secretion
effect of NH4Cl on R of cimetidine-inhibited tissues (in words) [2]: does not cause an increase in R; also recorded: no change in R
PD after NH4Cl (bullfrog gastric mucosa [3]): 28.48±1.47 mvolts
PD after NH4Cl washed out (bullfrog gastric mucosa [3]): 7.95±2.65 mvolts
R after NH4Cl (bullfrog gastric mucosa [3]): 306.5±16.11 Ohm cm^2
R after NH4Cl washed out (bullfrog gastric mucosa [3]): 159.0±16.83 Ohm cm^2
effect on potential difference (PD) of stimulated tissues (in words) (bullfrog gastric mucosa [3]): increase in potential difference (PD)
effect on resistance (R) of stimulated tissues (in words) (bullfrog gastric mucosa [3]): increase in resistance (R)
effect on concentration of ATP (in words) (rabbit gastric glands): statistically significant reduction in the concentration of ATP
intracellular ATP (rabbit gastric glands): 3.76±0.12 μM/mg protein
intracellular ATP, % of control (rabbit gastric glands): 83 % of control
Rate of decline in acid secretion (bullfrog gastric mucosa [4]): −0.2881 (μEq/h · cm^2)/min
acid secretion after NH4Cl washed from the nutrient bath (bullfrog gastric mucosa [4]): 5.51±0.16 μEq/hr cm^2
effect of 1-9 mM NH4Cl on acid secretion (bullfrog gastric mucosa [4]): inhibition of acid secretion
least (minimum) concentration required for complete inhibition of acid secretion within 30 min (bullfrog gastric mucosa [4]): 10 mM
rate of decline of acid secretion relative to cimetidine (bullfrog gastric mucosa [4]): 3.6 times faster
rate of decline of acid secretion relative to omeprazole (bullfrog gastric mucosa [4]): 3.2 times faster
rate of inhibition of acid secretion relative to cimetidine or omeprazole (bullfrog gastric mucosa [4]): more than 3 times faster
time to complete inhibition of stimulated acid secretion (bullfrog gastric mucosa [4]): ≤ 30 min
rate of acid secretion after NH4Cl (bullfrog gastric mucosa [4]; pH 7.2): 0±0 μEq/hr cm^2

N [NH4^+]
inhibition of Ca2+-dependent inwardly rectifying K+ channel activity [5]: potent inhibitor
